Measurements taken from US5602171A, “Methods of inhibiting phosphatase activity and treatment of disorders associated therewith using naphthopyrones and derivatives thereof” (Sugen Inc., priority 1995, dated 1997).

Tested on: 3T3-L1 cells
Test: Glucose transport assay
Format: cell-based
Settings: differentiated 3T3-L1 preadipocyte cell line, in the absence of insulin; 0.1 μM to 500 μM, 1-4 hours
Source text: This assay was used to assess the ability of the compounds of the invention to inhibit phosphatase activity that is involved in the signaling pathway that regulates the insulin-induced facilitated transport of glucose into adipocytes. […] Any compounds of the invention may be tested in this assay.
The cell line used for the glucose transport assay was 3T3-L1, a preadipocyte cell line (American Type Culture Collection CCL92.1) which overexpress the insulin receptor. The 3T3-L1 cells were first differentiated by treating cells under confluent growth in DMEM containing 10% fetal bovine serum (FBS) with 0.5 mM 3-isobutyl-1-methyl-xanthine, 5 μg/ml porcine insulin, […] dexamethasone for 2 days. The cells were then grown in DMEM containing 10% FBS and 5 μg/ml porcine insulin for two days, after which the cells were cultured in DMEM containing only 10% FBS.
Cells for use in the assay were first grown overnight in DMEM media and 1% FBS at 37° C. at 5% CO2. Two hours before use, the overnight media was replaced with serum free DMEM containing 5 mM glucose. […] The wells were washed each with 200 μl PBS which was transferred to the corresponding scintillation vial. ^3 H radioactivity was counted with a Beckman counter.

CC1CC(=O)c2c(cc3c(-c4c(O)cc(O)c5c(O)c6c(cc45)OC(C)CC6=O)c(O)cc(O)c3c2O)O1 (stereo not shown) [Compound 1]
uptake of 2-deoxy-3H-glucose: Dose response effect
